Experiments:
[1] = test system: white blood cells and subsets (lymphocytes, neutrophils, eosinophils); experiment: Differential white blood cell counts (immune suppression), MAD; assay type: in vivo, human; conditions: for Lymphocytes / Neutrophil cell counts / White blood cells counts: mean±SEM, in 10^9/L (unit assumed); for Eosinophils: mean
Description: A single dose of pharmacological glucocorticoids results in rapid changes in peripheral blood white cell counts, with increased neutrophils, and decreased lymphocytes. Increases of neutrophils are from release from peripheral tissues, whereas loss of lymphocytes is due to induction of apoptosis. Differential white blood cell counts were studied in all Phase 1 MAD subjects. […]
placebo. White blood cells and subsets (lymphocytes, neutrophils, eosinophils) were measured at screening, day -1, pre-dose on days 1-14, day 17, and at follow-up (recovery). Day 1 (pre-dose), Day 2 (24 hr after first dose), Day 14 and follow-up (recovery) time points are graphed […]

adrenal suppression = test system: adrenal suppression; set-up: method as in PMID 23498916, PMID 24014378, PMID 27133900; conditions: in vitro assays in multiple cell types; cited from earlier work
[2] = MAD 9.0 mg/kg, Day 1 predose, baseline
[3] = MAD 9.0 mg/kg, Day 17 (3 days after last dose)
[4] = MAD 9.0 mg/kg, Day 21 follow-up
[5] = MAD 9.0 mg/kg, Day -1, baseline
[6] = MAD 9.0 mg/kg, Screening, baseline
[7] = MAD 20.0 mg/kg, Day 1 predose, baseline
[8] = MAD 20.0 mg/kg, Day 17 (3 days after last dose)
[9] = MAD 20.0 mg/kg, Day 21 follow-up
[10] = MAD 20.0 mg/kg, Day -1, baseline
[11] = MAD 20.0 mg/kg, Screening, baseline

C[C@@H]1C[C@H]2[C@@H]3CCC4=CC(=O)C=C[C@]4(C)C3=CC[C@]2(C)[C@@]1(O)C(=O)CO [vamorolone]
Lymphocytes [1, 2]: 1.8 ± 0.4 | Neutrophil cell counts [1, 2]: 2.9 ± 0.9 | White blood cells counts [1, 2]: 5.2 ± 1.1 | Eosinophils ([1]; MAD 9.0 mg/kg, Day 2 predose): 0.13 10^9/L | Lymphocytes ([1]; MAD 9.0 mg/kg, Day 2 predose): 2.5 ± 0.7 | Neutrophil cell counts ([1]; MAD 9.0 mg/kg, Day 2 predose): 3.7 ± 1.1 | White blood cells counts ([1]; MAD 9.0 mg/kg, Day 2 predose): 6.7 ± 1.2 | Eosinophils ([1]; MAD 9.0 mg/kg, Day 3 predose): 0.1 10^9/L | Lymphocytes ([1]; MAD 9.0 mg/kg, Day 3 predose): 2.7 ± 0.7 | Neutrophil cell counts ([1]; MAD 9.0 mg/kg, Day 3 predose): 3.6 ± 0.7 | White blood cells counts ([1]; MAD 9.0 mg/kg, Day 3 predose): 6.8 ± 1.0 | Eosinophils ([1]; MAD 9.0 mg/kg, Day 7 predose): 0.1 10^9/L | Lymphocytes ([1]; MAD 9.0 mg/kg, Day 7 predose): 2.6 ± 0.6 | Neutrophil cell counts ([1]; MAD 9.0 mg/kg, Day 7 predose): 3.4 ± 1.0 | White blood cells counts ([1]; MAD 9.0 mg/kg, Day 7 predose): 6.6 ± 1.3 | Eosinophils ([1]; MAD 9.0 mg/kg, Day 12 predose): 0.12 10^9/L | Lymphocytes ([1]; MAD 9.0 mg/kg, Day 12 predose): 2.8 ± 0.6 | Neutrophil cell counts ([1]; MAD 9.0 mg/kg, Day 12 predose): 3.5 ± 0.9 | White blood cells counts ([1]; MAD 9.0 mg/kg, Day 12 predose): 6.8 ± 0.9 | Eosinophils ([1]; MAD 9.0 mg/kg, Day 14 predose): 0.13 10^9/L | Lymphocytes ([1]; MAD 9.0 mg/kg, Day 14 predose): 2.6 ± 0.6 | Neutrophil cell counts ([1]; MAD 9.0 mg/kg, Day 14 predose): 3.6 ± 1.0 | White blood cells counts ([1]; MAD 9.0 mg/kg, Day 14 predose): 6.8 ± 1.3 | Eosinophils [1, 3]: 0.08 10^9/L | Lymphocytes [1, 3]: 1.9 ± 0.5 | Neutrophil cell counts [1, 3]: 3.1 ± 0.7 | White blood cells counts [1, 3]: 5.5 ± 0.7 | Eosinophils [1, 4]: 0.12 10^9/L | Lymphocytes [1, 4]: 1.8 ± 0.7 | Neutrophil cell counts [1, 4]: 2.9 ± 1.0 | White blood cells counts [1, 4]: 5.2 ± 1.1 | Eosinophils [1, 5]: 0.12 10^9/L | Lymphocytes [1, 5]: 2.1 ± 0.7 | Neutrophil cell counts [1, 5]: 2.9 ± 0.6 | White blood cells counts [1, 5]: 5.5 ± 1.1 | Eosinophils [1, 6]: 0.1 10^9/L | Lymphocytes [1, 6]: 1.7 ± 0.5 | Neutrophil cell counts [1, 6]: 3.0 ± 1.0 | White blood cells counts [1, 6]: 5.2 ± 1.3 | Eosinophils [1, 7]: 0.28 10^9/L | Lymphocytes [1, 7]: 2.2 ± 0.6 | Neutrophil cell counts [1, 7]: 3.4 ± 1.1 | White blood cells counts [1, 7]: 6.3 ± 1.4 | Eosinophils ([1]; MAD 20.0 mg/kg, Day 2 predose): 0.17 10^9/L | Lymphocytes ([1]; MAD 20.0 mg/kg, Day 2 predose): 2.9 ± 0.8 | Neutrophil cell counts ([1]; MAD 20.0 mg/kg, Day 2 predose): 4.5 ± 1.2 | White blood cells counts ([1]; MAD 20.0 mg/kg, Day 2 predose): 8.0 ± 1.3 | Eosinophils ([1]; MAD 20.0 mg/kg, Day 3 predose): 0.15 10^9/L | Lymphocytes ([1]; MAD 20.0 mg/kg, Day 3 predose): 2.9 ± 0.7 | Neutrophil cell counts ([1]; MAD 20.0 mg/kg, Day 3 predose): 4.3 ± 1.2 | White blood cells counts ([1]; MAD 20.0 mg/kg, Day 3 predose): 7.9 ± 0.7 | Eosinophils ([1]; MAD 20.0 mg/kg, Day 7 predose): 0.15 10^9/L | Lymphocytes ([1]; MAD 20.0 mg/kg, Day 7 predose): 3.2 ± 0.9 | Neutrophil cell counts ([1]; MAD 20.0 mg/kg, Day 7 predose): 4.4 ± 0.7 | White blood cells counts ([1]; MAD 20.0 mg/kg, Day 7 predose): 8.2 ± 1.0 | Eosinophils ([1]; MAD 20.0 mg/kg, Day 12 predose): 0.12 10^9/L | Lymphocytes ([1]; MAD 20.0 mg/kg, Day 12 predose): 3.2 ± 0.4 | Neutrophil cell counts ([1]; MAD 20.0 mg/kg, Day 12 predose): 4.4 ± 0.4 | White blood cells counts ([1]; MAD 20.0 mg/kg, Day 12 predose): 8.3 ± 0.5 | Eosinophils ([1]; MAD 20.0 mg/kg, Day 14 predose): 0.16 10^9/L | Lymphocytes ([1]; MAD 20.0 mg/kg, Day 14 predose): 3.1 ± 0.4 | Neutrophil cell counts ([1]; MAD 20.0 mg/kg, Day 14 predose): 4.6 ± 0.4 | White blood cells counts ([1]; MAD 20.0 mg/kg, Day 14 predose): 8.5 ± 0.4 | Eosinophils [1, 8]: 0.16 10^9/L | Lymphocytes [1, 8]: 2.2 ± 0.3 | Neutrophil cell counts [1, 8]: 4.0 ± 0.3 | White blood cells counts [1, 8]: 6.8 ± 0.2 | Eosinophils [1, 9]: 0.26 10^9/L | Lymphocytes [1, 9]: 2.2 ± 0.3 | Neutrophil cell counts [1, 9]: 4.0 ± 0.3 | White blood cells counts [1, 9]: 6.8 ± 0.4 | Eosinophils [1, 10]: 0.32 10^9/L | Lymphocytes [1, 10]: 2.6 ± 0.5 | Neutrophil cell counts [1, 10]: 3.9 ± 1.1 | White blood cells counts [1, 10]: 7.3 ± 1.1 | Eosinophils [1, 11]: 0.25 10^9/L | Lymphocytes [1, 11]: 2.0 ± 0.5 | Neutrophil cell counts [1, 11]: 3.5 ± 1.2 | White blood cells counts [1, 11]: 6.1 ± 1.1 | white blood cell counts ([1]; any MAD dose group): No significant changes | adrenal suppressive activity relative to traditional glucocorticoids (adrenal suppression): ~ 1%

Source: paper PMC6136660 (Steroids, 2018)
